The target of this test is RIPK1 (recombinant GST-RIPK1 kinase domain, residues 1-327) (Homo sapiens (Human), UniProt Q13546). The test is described as follows: RIPK1-ADP-Glo Enzymatic Assay. It is filed as biochemical. Conditions: ADP-Glo; 25 nM GST-RIPK1, 300 μM ATP; assay lower limit ~25 nM; read-out: RIPK1 V0 Ec50. The gist of the method:
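Compounds titrated 10-pt 1:3 from 100000 nM top (1% DMSO); 30 min preinc w/ 25 nM Sf21-expressed enzyme, RT; start w/ ATP (300 μM final) + dephos-MBP (3 μM); 150 min; ADP-Glo lumi; 4-param fit → EC50.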
For orientation: ADP-Glo turns the ADP formed in a reaction into a luminescent signal.

pEC50: −log10 of the molar value. Counter-ions that a name gives are not always drawn. Where only a bound is given, the exact number is not on record here.

Chain of RIPK1 (recombinant GST-RIPK1 kinase domain, residues 1-327) (Q13546 1-327): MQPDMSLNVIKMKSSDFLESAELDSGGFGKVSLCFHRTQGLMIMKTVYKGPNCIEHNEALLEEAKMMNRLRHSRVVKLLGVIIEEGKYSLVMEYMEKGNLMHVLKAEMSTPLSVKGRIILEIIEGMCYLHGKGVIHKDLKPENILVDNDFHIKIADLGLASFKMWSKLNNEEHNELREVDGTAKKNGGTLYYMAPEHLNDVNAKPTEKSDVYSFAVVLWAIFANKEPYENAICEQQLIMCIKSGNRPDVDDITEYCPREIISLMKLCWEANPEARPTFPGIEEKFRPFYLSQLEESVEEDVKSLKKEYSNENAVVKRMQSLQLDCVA

As a reminder, the pEC50 is the negative decadic logarithm of the EC50, by convention in mol/L. With `Cc1cccc(C(=O)N2CCC3(CC2)O[C@@H]2CC[C@@H](c4cc(F)cc(F)c4)N2C3=O)n1` [Example 6.13, (5′S,7a′R)-5′-(3,5-difluorophenyl)-1-(6-methylpyridine-2-carbonyl)tetrahydro-3′H-spiro[piperidine-4,2′-pyrrolo[2,1-b] [1,3]oxazol]-3′-one], the negative-log EC50 (pEC50) is 7.22.
For `O=C(c1cccc(Cl)c1)N1CCC2(CC1)O[C@@H]1CC[C@@H](c3cc(F)cc(F)c3)N1C2=O` [Example 6.9, (5′S,7a′R)-1-(3-chloro-benzene-1-carbonyl)-5′-(3,5-difluoro-phenyl)tetrahydro-3′H-spiro[piperidine-4,2′-pyrrolo[2,1-b] [1,3]oxazol]-3′-one] the value was above 7.60; for `O=C(C1CCCC1)N1CCC2(CC1)O[C@@H]1CC[C@@H](c3cc(F)cc(F)c3)N1C2=O` [Example 5.32, (5′S,7a′R)-1-(cyclopentane-carbonyl)-5′-(3,5-difluoro-phenyl)tetrahydro-3′H-spiro[piperidine-4,2′-pyrrolo[2,1-b]oxazol]-3′-one], 6.39; for `C#Cc1ccnc(C(=O)N2CCC3(CC2)O[C@@H]2CC[C@@H](c4cc(F)cc(F)c4)N2C3=O)c1` [Example 5.43, (5′S,7a′R)-5′-(3,5-difluoro-phenyl)-1-(4-ethynylpico-linoyl)tetrahydro-3′H-spiro[piperidine-4,2′-pyrrolo[2,1-b]oxazol]-3′-one], above 7.60.
Under `O=C1N2[C@@H](CC[C@H]2c2cc(F)cc(F)c2)OC12CCN(c1ccnc3c(F)cnn13)CC2` [Example 3.1, (5′S,7a′R)-5′-(3,5-difluorophenyl)-1-(3-fluoropyrazolo[1,5-a]pyrimidin-7-yl)tetrahydro-3′H-spiro[piperidine-4,2′-pyrrolo[2,1-b]oxazol]-3′-one] stands above 7.60; under `N#Cc1cccc(N2CCC3(CC2)O[C@@H]2CC[C@@H](c4ccccc4)N2C3=O)n1` [Example 4.29, 6-[(5′S,7a′R)-3′-oxo-5′-phenyltetrahydro-1H,3′H-spiro[piperidine-4,2′-pyrrolo[2,1-b] [1,3]oxazol]-1-yl]pyridine-2-carbonitrile], above 7.60.
On to `O=C1N2[C@@H](CC[C@H]2c2cc(F)cc(F)c2)OC12CCN(c1ncc(Cl)cn1)CC2` [Example 4.63, (5′S,7a′R)-1-(5-chloropyrimidin-2-yl)-5′-(3,5-difluorophenyl)tetrahydro-3′H-spiro[piperidine-4,2′-pyrrolo[2,1-b] [1,3]oxazol]-3′-one], for which the negative logarithm of the EC50 (pEC50) was 7.31.
Under `O=C(c1ccsc1-n1nccn1)N1CCC2(CC1)O[C@@H]1CC[C@@H](c3cc(F)cc(F)c3)N1C2=O` [Example 6.68, (5′S,7a′R)-5′-(3,5-difluorophenyl)-1-[2-(2H-1,2,3-triazol-2-yl)thiophene-3-carbonyl]tetrahydro-3′H-spiro[piperidine-4,2′-pyrrolo[2,1-b] [1,3]oxazol]-3′-one] stands 6.67.
For `O=C(C1CCCCC1)N1CCC2(CC1)O[C@@H]1CC[C@@H](c3cc(F)cc(F)c3)N1C2=O` [Example 5.7, (5′S,7a′R)-1-(cyclohexane-carbonyl)-5′-(3,5-difluoro-phenyl)tetrahydro-3′H-spiro[piperidine-4,2′-pyrrolo[2,1-b][1,3]oxazol]-3′-one], the pEC50 was 6.63.
Under `O=C(c1cccnc1)N1CCC2(CC1)O[C@@H]1CC[C@@H](c3cc(F)cc(F)c3)N1C2=O` [Example 5.64, (5′S,7a′R)-5′-(3,5-difluoro-phenyl)-1-nicotinoyltetra-hydro-3′H-spiro[piperidine-4,2′-pyrrolo[2,1-b]oxazol]-3′-one] stands 7.41.
For `NC(=O)c1cc(N2CCC3(CC2)O[C@@H]2CC[C@@H](c4cc(F)cc(F)c4)N2C3=O)ncn1` [Example 4.185, 6-[(5′S,7a′R)-5′-(3,5-difluorophenyl)-3′-oxotetrahydro-1H,3′H-spiro[piperidine-4,2′-pyrrolo[2,1-b] [1,3]oxazol]-1-yl]pyrimidine-4-carboxamide] the value was 7.08; for `Cc1ccc(F)c(C(=O)N2CCC3(CC2)O[C@@H]2CC[C@@H](c4cccc(F)c4)N2C3=O)c1` [Example 6.133, (5′S,7a′R)-1-(2-fluoro-5-methylbenzene-1-carbonyl)-5′-(3-fluoro-phenyl)tetrahydro-3′H-spiro[piperidine-4,2′-pyrrolo[2,1-b] [1,3]oxazol]-3′-one], above 7.60.
Under `N#Cc1cccc(C(=O)N2CCC3(CC2)O[C@@H]2CC[C@@H](c4cccc(F)c4)N2C3=O)c1F` [Example 6.122, 2-fluoro-3-[(5′S,7a′R)-5′-(3-fluorophenyl)-3′-oxotetrahydro-1H,3′H-spiro[piperi-dine-4,2′-pyrrolo[2,1-b][1,3]oxazole]-1-carbonyl]benzonitrile] stands 7.32.
With `N#Cc1ccc(N2CCC3(CC2)O[C@@H]2CC[C@@H](c4cc(F)cc(F)c4)N2C3=O)cc1-n1ccnn1` [Example 4.70, 4-[(5′S,7a′R)-5′-(3,5-difluorophenyl)-3′-oxotetrahydro-1H,3′H-spiro[piperidine-4,2′-pyrrolo[2,1-b] [1,3]oxazol]-1-yl]-2-(1H-1,2,3-triazol-1-yl)benzonitrile], the pEC50 is 7.27.
For `O=C1N2[C@@H](CC[C@H]2c2ccccc2)OC12CCN(c1ccc(-c3cc4n(n3)CCC4)c3ncnn13)CC2` [Example 21.18, (5′S,7a′R)-1-[8-(5,6-dihydro-4H-pyrrolo[1,2-b]pyrazol-2-yl)[1,2,4]triazolo[1,5-a]pyridin-5-yl]-5′-phenyltetrahydro-3′H-spiro[piperidine-4,2′-pyrrolo[2,1-b][l,3]oxazol]-3′-one] the value was above 7.60.
Under `N#Cc1cc(F)cc(C(=O)N2CCC3(CC2)O[C@@H]2CC[C@@H](c4cc(F)cc(F)c4)N2C3=O)c1` [Example 5.15, 3-((5′S,7a′R)-5′-(3,5-difluorophenyl)-3′-oxo-tetrahydro-3′H-spiro [piperidine-4,2′-pyrrolo-[2,1-b]oxazole]-1-carbon-yl)-5-fluorobenzonitrile] stands 7.01; under `CC1CC2(CCN1c1ncnc3ccnn13)O[C@@H]1CC[C@@H](c3cc(F)cc(F)c3)N1C2=O` (stereo partly drawn) [Example 4.213, (5′S,7a′R)-5′-(3,5-difluorophenyl)-2-methyl-1-(pyrazolo[1,5-a] [1,3,5]triazin-4-yl)tetrahydro-3′H-spiro[piperidine-4,2′-pyrrolo[2,1-b] [1,3]oxazol]-3′-one], above 7.60; under `O=C1N2[C@@H](CC[C@H]2c2cc(F)cc(F)c2)OC12CCN(c1ccc(Cl)c3ncnn13)CC2` [Example 15.4, (5′S,7a′R)-1-(8-chloro-[1,2,4]triazolo[1,5-a]pyridin-5-yl)-5′-(3,5-difluorophenyl)tetrahydro-3′H-spiro[piperidine-4,2′-pyrrolo[2,1-b]oxazol]-3′-one, TFA salt], above 7.60.
For `O=C1N2[C@@H](CC[C@H]2c2cc(F)cc(F)c2)OC12CCN(c1ncnn3cccc13)CC2` [Example 13.11, (5′S,7a′R)-5′-(3,5-difluorophenyl)-1-(pyrrolo [2,1-f][1,2,4]triazin-4-yl)tetrahydro-3′H-spiro[piperidine-4,2′-pyrrolo[2,1-b]oxazol]-3′-one, TFA salt] the value was above 7.60.
Take `O=C1N2C(=NC13CCN(c1ccnc4c(F)cnn14)CC3)CC[C@H]2c1cc(F)cc(F)c1` [Example 4.79, (S)-5′-(3,5-difluorophenyl)-1-(3-fluoropyrazolo[1,5-a]pyrimidin-7-yl)-6′,7′-dihydro-3′H,5′H-spiro[piperidine-4,2′-pyrrolo[1,2-a]imidazol]-3′-one]: the negative logarithm of the EC50 (pEC50) is above 7.60.
For `O=C(c1ccco1)N1CCC2(CC1)O[C@@H]1CC[C@@H](c3cc(F)cc(F)c3)N1C2=O` [Example 5.50, (5′S,7a′R)-5′-(3,5-difluoro-phenyl)-1-(furan-2-carbon-yl)tetrahydro-3′H-spiro [piperidine-4,2′-pyrrolo-[2,1-b]oxazol]-3′-one] the value was above 7.60; for `O=C1N2[C@H](CC[C@@H]2c2ccccc2)SC12CCN(c1ccnc3ccnn13)CC2` [Example 4.115, (5′R,7a′S)-5′-phenyl-1-(pyrazolo[1,5-a]pyrimidin-7-yl)tetrahydro-3′H-spiro[piperidine-4,2′-pyrrolo[2,1-b]thiazol]-3′-one], 6.74; for `O=C(c1csnn1)N1CCC2(CC1)O[C@@H]1CC[C@@H](c3cc(F)cc(F)c3)N1C2=O` [Example 5.49, (5′S,7a′R)-5′-(3,5-difluoro-phenyl)-1-(1,2,3-thiadi-azole-4-carbonyl)tetra-hydro-3′H-spiro[piperidine-4,2′-pyrrolo[2,1-b]oxazol]-3′-one], 7.11.
As to `O=C1N2[C@H](OC13CCN(c1ccnc4c(F)cnn14)CC3)[C@H](O)C[C@H]2c1ccccc1` [Example 4.149, (5′S,7′R,7a′R)-1-(3-fluoropyrazolo[1,5-a]pyrimidin-7-yl)-7′-hydroxy-5′-phenyltetrahydro-3′H-spiro[piperidine-4,2′-pyrrolo[2,1-b] [1,3]oxazol]-3′-one], the pEC50 was above 7.60.
Under `CC1CN(c2cc(C#N)ncn2)CCC12O[C@@H]1CC[C@@H](c3ccccc3)N1C2=O` (stereo partly drawn) [Example 4.237, 6-[(4R,5′S,7a′R)-3-methyl-3′-oxo-5′-phenyltetrahydro-1H,3′H-spiro[piperidine-4,2′-pyrrolo[2,1-b] [1,3]oxazol]-1-yl]pyrimidine-4-carbonitrile] stands above 7.60; under `Cc1nc(N2CCC3(CC2)O[C@@H]2CC[C@@H](c4ccccc4)N2C3=O)ncc1-c1cnoc1` [Example 21.9, (5′S,7a′R)-1-[4-methyl-5-(1,2-oxazol-4-yl)pyrimidin-2-yl]-5′-phenyltetrahydro-3′H-spiro[piperidine-4,2′-pyrrolo[2,1-b][1,3]oxazol]-3′-one], 7.42.

These data come from patent US12180226B2, “Spirotricycle RIPK1 inhibitors and methods of uses thereof” (Merck Sharp & Dohme LLC, priority 2021, dated 2024).
